Measured values: patent publication US20240059728A1, “NOVEL GALACTOSIDE INHIBITOR OF GALECTINS” (GALECTO BIOTECH AB, priority 2021, published 2024)

Key:
Galectin-1 = Galectin-1 (Homo sapiens (Human), UniProt P09382); test: fluorescence anisotropy assay, galectin-1; format: binding; settings: inhibition of the interaction between galectin and a fluorescein tagged saccharide probe
Method: (§1) The affinity of Example 1-14 for galectins were determined by a fluorescence anisotropy assay where the compound was used as an inhibitor of the interaction between galectin and a fluorescein tagged saccharide probe as described Sörme, P., Kahl-Knutsson, B., Huflejt, M., Nilsson, U. J., and Leffler H. (2004) Fluorescence polarization as an analytical tool to evaluate galectin-ligand interactions. Anal. Biochem. 334: 36-47, (Sarme et al., 2004) and Monovalent interactions of Galectin-1 By Salomonsson, Emma; Larumbe, Amaia; Tejler, Johan; Tullberg, Erik; Rydberg, Hanna; Sundin, Anders; Khabut, Areej; Frejd, Torbjorn; Lobsanov, Yuri D.; Rini, James M.; et al, From Biochemistry (2010), 49(44), 9518-9532, (Salomonsson et al., 2010).

Galectin-3 = Galectin-3 (Homo sapiens (Human), UniProt P17931); test: fluorescence anisotropy assay, galectin-3; format: binding; settings: inhibition of the interaction between galectin and a fluorescein tagged saccharide probe
Sequence of Galectin-3 (P17931 whole entry): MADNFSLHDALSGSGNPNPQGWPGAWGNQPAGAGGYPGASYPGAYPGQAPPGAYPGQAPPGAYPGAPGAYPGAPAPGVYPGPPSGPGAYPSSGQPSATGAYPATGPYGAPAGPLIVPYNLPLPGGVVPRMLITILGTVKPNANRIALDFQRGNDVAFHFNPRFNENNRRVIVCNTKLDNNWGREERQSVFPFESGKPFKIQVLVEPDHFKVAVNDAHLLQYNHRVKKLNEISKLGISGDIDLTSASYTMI
Method: as §1

Sequence of Galectin-1 (P09382 whole entry): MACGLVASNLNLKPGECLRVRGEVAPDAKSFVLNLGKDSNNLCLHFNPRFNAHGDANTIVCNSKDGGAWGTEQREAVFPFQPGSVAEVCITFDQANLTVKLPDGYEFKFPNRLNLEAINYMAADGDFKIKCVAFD

Compound	Kd (Galectin-1) [nM]	Kd (Galectin-3) [nM]
OCC1O[C@@H](S[C@@H]2O[C@H](CO)C(O)C(n3cc(-c4csc(O)n4)nn3)[C@H]2O)C(O)[C@@H](n2cc(-c3cc(F)c(F)c(F)c3)nn2)[C@H]1O (stereo partly drawn) [Example 1, 3,3′-Dideoxy-3-[4-(3,4,5-trifluorophenyl)-1H-1,2,3-triazol-1-yl]-3′-[4-(2-hydroxythiazol-4-yl)-1H-1,2,3-triazol-1-yl]-1,1′-sulfanediyl-di-β-D-galactopyranoside]	3	0.4
OCC1O[C@@H](S[C@@H]2O[C@H](CO)C(O)C(n3cc(-c4csc(O)n4)nn3)[C@H]2O)C(O)[C@@H](n2cc(-c3cc(F)c(Cl)c(F)c3)nn2)[C@H]1O (stereo partly drawn) [Example 2, 3-[4-(4-Chloro-3,5-difluorophenyl)-1H-1,2,3-triazol-1-yl]-3,3′-dideoxy-3′-[4-(2-hydroxythiazol-4-yl)-1H-1,2,3-triazol-1-yl]-1,1′-sulfanediyl-di-β-D-galactopyranoside]	4	0.3
Nc1nc(-c2cn(C3C(O)[C@@H](CO)O[C@@H](S[C@@H]4OC(CO)[C@H](O)[C@H](n5cc(-c6cc(F)c(Cl)c(F)c6)nn5)C4O)[C@@H]3O)nn2)cs1 (stereo partly drawn) [Example 3, 3′-[4-(2-Aminothiazol-4-yl)-1H-1,2,3-triazol-1-yl]-3-[4-(4-chloro-3,5-difluorophenyl)-1H-1,2,3-triazol-1-yl]-3,3′-dideoxy-1,1′-sulfanediyl-di-β-D-galactopyranoside]	9	1
OCC1O[C@@H](S[C@@H]2O[C@H](CO)C(O)C(n3cc(-c4ccc(Cl)c(F)c4F)nn3)[C@H]2O)C(O)[C@@H](n2cc(-c3ccc(Cl)c(F)c3F)nn2)[C@H]1O (stereo partly drawn) [Example 14, 1,1′-Sulfanediyl-bis-{3-[4-(4-chloro-2,3-difluorophenyl)-1H-1,2,3-triazol-1-yl]-3-deoxy-β-D-galactopyranoside}]	450	12
